The values below come from patent publication US10654866B2, “Selective estrogen receptor degraders” (Eli Lilly and Company, priority 2018, dated 2020).

The target in test [1] is ERα (wild type) (Homo sapiens (Human), UniProt P03372). Put plainly: ERα (wild type) competition binding assay. Conditions: 3H-estradiol competition; Ki from IC50 by Cheng-Prusoff. As to the method: (§1) Add the test compound at 10 different concentrations ranging from 10,000 nM to 0.5 nM, and determine nonspecific binding in the presence of 1 μM of 1713 estradiol. Incubate the binding reaction (140 μL) for 4 hours at room temperature, and then add cold dextran-charcoal buffer (70 μL) (containing per 50 mL of assay buffer, 0.75 g of charcoal and 0.25 g of dextran) to each reaction. Mix the plates for 8 minutes on an orbital shaker at 4° C. and then centrifuge at 3000 rpm at 4° C. for 10 minutes. Transfer an aliquot (120 μL) of the mixture to another 96-well, white flat bottom plate (Costar) and add Perkin Elmer Optiphase Supermix scintillation fluid (175 μL) to each well. Seal the plates and shake vigorously on an orbital shaker. After an incubation of 2.5 hours, read the plates in a Wallac Microbeta counter. […] Convert the IC50 values for the compound to Ki using Cheng-Prusoff equation.

Test [2] concerns the target ERα (Y537S mutant) (Homo sapiens (Human), UniProt P03372, Y537S). The test can be described thus: ERα (Y537S mutant) competition binding assay. Conditions: 3H-estradiol competition; Ki from IC50 by Cheng-Prusoff. On the procedure: as §1
Test [3] addresses T1, ERα (Homo sapiens (Human), UniProt P03372). Put plainly: ERα degradation assay in MCF7 cells. The test is classed as cell-based. Conditions: 24 hours, % ER positive cells, read-out: Relative IC50. As to the method:
The purpose of the following ERα degradation assay is to measure the degradation of ERα by a test compound in an ERα positive breast cancer cell line such as MCF7.
Culture MCF7 (purchased from ATCC HTB-22) cells in DMEM media supplemented with 10% FBS, 0.01 mg/mL human insulin 1 and 1% penicillin/streptomycin antibiotics and plate in 384-well flat-bottom plates at a density of 4,000 cells per well in phenol red free DMEM media (20 μL) containing 10% charcoal stripped FBS. Incubate the cells overnight in a cell culture incubator (5% CO2, 95% relative humidity and 37° C.) and allow the cells to attach to the plate. The following day dose the cells with the test compound. Use an Echo 555 acoustic dispenser to prepare test compound serial dilutions (1:3) in a range from 6 μM to 0.0003 μM. Dose the cells with the addition of 5 μL from the serial dilution plate to the cell plate producing a final DMSO concentration of 0.2% with a final test compound concentration dose range between 2 and 0.0001 μM. For the maximum point, use media containing 0.2% of DMSO and for the minimum point, use fulvestrant diluted at 2 μM final concentrations in the growth media containing 0.2% DMSO. After dosing with the test compound, incubate the cell plates at 37° C. and 5% CO2 for 24 hours. Fix the cells by adding 14% para-formaldehyde (10 μL) for 30 minutes at room temperature. Wash the cells once with PBS (20 μL) and incubate with PBS (20 μL) containing 0.5% (v/v) TWEEN® 20 for 1 hour. Wash the cells with PBS containing 0.05% TWEEN® 20 (2×) and block with 3% BSA in PBS containing 0.05% TWEEN® 20 and 0.1% TRITON™ X-100 (20 μL/well) for 1 hour at room temperature. Add 1:500 Primary antibody (20 μL) (ERα (Clone SP1) monoclonal rabbit antibody # RM-9101-S, Thermo Scientific) dilution in 1% BSA in PBS containing 0.05% TWEEN® 20 per well, seal the plates and incubate overnight at 4° C. The following day wash the cells with PBS containing 0.05% TWEEN® 20 (2×) and incubate with secondary antibody (20 μL/well) (1:1000 dilution, Goat anti-rabbit IgM ALEXA FLUOR™ 488) in PBS 1% BSA for 105 minutes at room temperature. […] Seal the plates and incubate 1 hour at room temperature on the bench (preserved from light). Scan the plates with ACUMEN EXPLORER™ [Laser-scanning fluorescence microplate cytometer manufactured by TTP LABTECH LTD] to measure ERα. Image analysis is based on cellular fluorescent signals for identifying positive cells. Identify ER positive cells by mean intensity. Use total intensity at 575-640 nm from propidium iodide/DNA to identify individual cells. Assay output is % ER positive cells. Determine the IC50 by curve fitting to a four parameter logistic for each output using GENE DATA™.

In test [4] the target is Y537N mutant ERα receptor (Homo sapiens, UniProt P03372, Y537N). Put plainly: PRα inhibition (ERα functional antagonism) cell assay in MCF7-ESR1 Y537N 682 CRISPR cells. In kind it is cell-based. Conditions: MCF7 Y537N 682 CRISPR cells, 72 hours, % PR positive cells; read-out: Relative IC50. As to the method:
An antagonist in this assay is expected to block the function of the ERα receptor.
Incubate the cells overnight in a cell culture incubator (5% CO2, 95% relative humidity and 37° C.) and allow the cells to attach to the plate. The following day dose the cells with the test compound. Use an Echo 555 acoustic dispenser to prepare compound serial dilutions (1:3) in a range from 6 μM to 0.0003 μM. Dose the cells with the addition of 5 μL from the serial dilution plate to the cell plate producing a final DMSO concentration of 0.2% with a final test compound concentration dose range between 2 and 0.0001 μM. For the maximum point use media containing 0.2% of DMSO and for the minimum point, use fulvestrant diluted at 2 μM final concentrations in the growth media containing 0.2% DMSO. After dosing with test compound, incubate the cell plates at 37° C. and 5% CO2 for 72 hours. Fix the cells by adding 14% para-formaldehyde (10 μL) for 30 minutes at room temperature. Wash the cells with PBS (1×20 μL) and incubate with PBS (20 μL) of containing 0.5% (v/v) TWEEN® 20 for 1 hour. Wash the cells with PBS (2×20 μL) 0.05% TWEEN® 20, and block with 3% BSA/PBS 0.05% TWEEN® 20, 0.1% TRITON™ X-100 (20 μL/well) for 1 hour at room temperature. Add 1:500 primary antibody (20 μL) (PR monoclonal mouse anti-human antibody, clone PgR 636 Dako, M3569) dilution in 1% BSA/PBS 0.05 TWEEN® 20 per well, seal the plates and incubate overnight at 4° C.
The following day, wash the cells with PBS […] (2×20 μL) and incubate with secondary antibody (20 μL/well) (1:1000 dilution, Goat anti-rabbit IgM ALEXA FLUOR™ 488) in PBS 1% BSA for 105 minutes at room temperature. […] Seal the plates and incubate 1 hour at room temperature on the bench (preserved from light). Scan the plates with ACUMEN EXPLORER™ [Laser-scanning fluorescence microplate cytometer manufactured by TTP LABTECH LTD] to measure PRα. Image analysis is based on cellular fluorescent signals for identifying positive cells. Identify PR positive cells by mean intensity. Use total intensity at 575-640 nm from propidium iodide/DNA to identify individual cells. Assay output is % PR positive cells. Determine the IC50 by curve fitting to a four parameter logistic for each output using GENE DATA™.

Test [5] concerns the target T1, ERα. Put plainly: PRα inhibition (ERα functional antagonism) cell assay in MCF7 cells. The test is classed as cell-based. Conditions: MCF7 cells pretreated with 0.47 nM estradiol, % PRα positive cells; read-out: Relative IC50. An excerpt: The purpose of the following PRα inhibition (ERα functional antagonism) cell assay is to determine the antagonistic activity of a test compound against the ERα receptor. An antagonist in this assay is expected to block the function of the ERα receptor.
Carry out the assay conditions as detailed in the ERα degradation Cell base Acumen assay above, using the MCF7 cell line except that, prior to test compound dispensing, remove the media from the cell plate and pretreat all wells except for the negative control wells (column 24 of the plate) with assay media containing 0.47 nM estradiol for 30 minutes. In this assay, carry out immunostaining for the detection of PRα and scan the plates with ACUMEN EXPLORER™ [Laser-scanning fluorescence microplate cytometer manufactured by TTP LABTECH LTD] to measure PRα. Image analysis is based on cellular fluorescent signals for identifying positive cells. Identify PRα positive cells by mean intensity. Use total intensity at 575-640 from propidium iodide/DNA to identify individual cells. Assay output is % PRα positive cells. Determine the IC50 by curve fitting to a four parameter logistic for each output using GENE DATA™.

Test [6] concerns MCF7 ER-positive breast cancer model. Put plainly: In vivo combination studies in MCF7 ER-positive breast cancer xenograft model. On the set-up: species or system mice. Conditions: for Difference (Treatment 1 − Treatment 2): Treatment 1 = Vehicle, log10 tumor volume. An excerpt: Otherwise, the statistical conclusion is additive.

Sequence of ERα (Y537S mutant) (P03372 whole entry Y537S): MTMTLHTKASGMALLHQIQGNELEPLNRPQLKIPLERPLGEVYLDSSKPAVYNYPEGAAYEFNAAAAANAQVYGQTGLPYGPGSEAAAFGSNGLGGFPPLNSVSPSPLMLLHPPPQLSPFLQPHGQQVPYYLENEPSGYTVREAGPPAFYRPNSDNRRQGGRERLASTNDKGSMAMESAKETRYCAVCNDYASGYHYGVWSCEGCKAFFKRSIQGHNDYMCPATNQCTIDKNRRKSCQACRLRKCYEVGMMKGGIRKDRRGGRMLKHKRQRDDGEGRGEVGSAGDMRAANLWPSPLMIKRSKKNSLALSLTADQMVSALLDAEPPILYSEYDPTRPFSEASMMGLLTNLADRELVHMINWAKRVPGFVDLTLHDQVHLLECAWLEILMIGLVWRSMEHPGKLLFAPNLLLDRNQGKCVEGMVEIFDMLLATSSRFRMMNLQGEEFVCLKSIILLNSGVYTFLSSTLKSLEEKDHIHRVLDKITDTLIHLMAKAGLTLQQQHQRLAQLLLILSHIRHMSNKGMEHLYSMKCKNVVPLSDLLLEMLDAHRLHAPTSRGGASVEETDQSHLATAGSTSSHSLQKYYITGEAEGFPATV
T1 sequence (P03372 whole entry): as the sequence (P03372 whole entry Y537S) above, with S537Y counted along it
Sequence of ERα (wild type) (P03372 whole entry): as the sequence (P03372 whole entry Y537S) above, with S537Y counted along it

On to `Oc1ccc2c3c(cnc2c1)-c1ccc(Cl)cc1OC3c1ccc(OCCN2CC(CF)C2)cc1` (racemic) [Example 3, 8-chloro-5-(4-{2-[3-(fluoromethyl)azetidin-1-yl]ethoxy}phenyl)-5H-[1]benzopyrano[4,3-c]quinolin-2-ol], for which the Ki in test [1] turned out to be 2.36 nM; in test [2], 6.69 nM. Further, the DC50 in test [3] amounted to 33.5 ± 7.83 nM. In test [4], the IC50 was determined as 77.2 ± 11.5 nM.
Take `Oc1ccc2c3c(cnc2c1)-c1ccc(Cl)cc1OC3c1ccc(OCCN2CC(CF)C2)cc1` (single isomer, unassigned) [Example 3A, 8-Chloro-5-(4-{2-[3-(fluoromethyl)azetidin-1-yl]ethoxy}phenyl)-5H-[1]benzopyrano[4,3-c]quinolin-2-ol]: the Ki was 8.11 nM in test [1] and 27.2 nM in test [2]. Besides, in test [3], the DC50 turned out to be 390 nM. Besides, the IC50 in test [4] is 612 nM; in test [5] it was 927 nM.
As to `Oc1ccc2c3c(cnc2c1)-c1ccc(Cl)cc1OC3c1ccc(OCCN2CC(CF)C2)cc1` (single isomer, unassigned) [Example 3B, 8-Chloro-5-(4-{2-[3-(fluoromethyl)azetidin-1-yl]ethoxy}phenyl)-5H-[1]benzopyrano[4,3-c]quinolin-2-ol], the inhibitory constant (Ki) was determined as 0.59 nM in test [1] and 2.79 nM in test [2]. Also, the DC50 in test [3] is 8.66 nM. Besides, the values for the half-maximal inhibitory concentration (IC50) in test [4] and in test [5] were 16 nM and 34.4 nM, respectively.
As to `CCN1CCN(Cc2ccc(Nc3ncc(F)c(-c4cc(F)c5nc(C)n(C(C)C)c5c4)n3)nc2)CC1` [Abemaciclib, abemaciclib, reference compound], the “Delta T/C % or % Regression” value in test [6] (Example 1B 10 mpk, Abemaciclib 50 mpk, QD × 42, PO (Table 16)) is listed as −52%; in test [6] (Example 10 15 mpk, Abemaciclib 50 mpk, QD × 42, PO (Table 20)) it was −70%. For the same molecule, the “Difference (Treatment 1 − Treatment 2)” value in test [6] (Example 1B 10 mpk, Abemaciclib 50 mpk, QD × 42, PO) was found to be 0.479; in test [6] (Example 10 15 mpk, Abemaciclib 50 mpk, QD × 42, PO) it was 0.445.
For `CO[C@@H](C)Cn1c(=O)n(C)c2cnc3ccc(-c4cncc(C(C)(C)O)c4)cc3c21` [Compound A, 8-[5-(1-hydroxy-1-methylethyl)pyridin-3-yl]-1-[(2 S)-2-methoxypropyl]-3-methyl-1,3-dihydro-2H-imidazo[4,5-c]quinolin-2-one, reference compound], the “Delta T/C % or % Regression” value in test [6] (Example 1B 10 mpk QD × 42, Compound A 7.5 mpk BID × 42, PO (Table 18)) is −36%. Also, the “Difference (Treatment 1 − Treatment 2)” value in test [6] (Example 1B 10 mpk QD × 42, Compound A 7.5 mpk BID × 42, PO) is 0.504.
With `CO[C@H]1C[C@@H]2CC[C@@H](C)[C@@](O)(O2)C(=O)C(=O)N2CCCC[C@H]2C(=O)O[C@H]([C@H](C)C[C@@H]2CC[C@@H](OCCO)[C@H](OC)C2)CC(=O)[C@H](C)/C=C(\C)[C@@H](O)[C@@H](OC)C(=O)[C@H](C)C[C@H](C)/C=C/C=C/C=C/1C` [Everolimus, everolimus, reference compound], in test [6] (Example 10 15 mpk, Everolimus 5 mpk, QD × 42, PO (Table 24)), the “Delta T/C % or % Regression” value is recorded as −50%. The “Difference (Treatment 1 − Treatment 2)” value in test [6] (Example 10 15 mpk, Everolimus 5 mpk, QD × 42, PO) is 0.433.
For the molecule `Cc1nc(NC(=O)N2CCC[C@H]2C(N)=O)sc1-c1ccnc(C(C)(C)C(F)(F)F)c1` [alpelisib, reference compound], the “Delta T/C % or % Regression” value in test [6] (Example 10 15 mpk, alpelisib 15 mpk (d1-d7), 10 mpk (d8-42), QD × 42, PO (Table 22)) is on record as −21%. In test [6] (Example 10 15 mpk, alpelisib 15 mpk (d1-d7), 10 mpk (d8-42), QD × 42, PO), the “Difference (Treatment 1 − Treatment 2)” value was determined as 0.445.

The Ki is the equilibrium dissociation constant of an inhibitor or competing ligand from its target. A lower Ki goes with higher affinity. A word on the IC50: it is the concentration needed to halve the response being measured.
